A word on the EC50: it is the concentration needed to bring the measured effect to its halfway point. Low values mean an effect from little substance, high ones a need for much substance.

The values that follow come from patent US20120101083A1, “S1P1 AGONISTS COMPRISING A BICYCLIC N-CONTAINING RING” (GLAXO GROUP LIMITED, priority 2009, published 2012).

Molecules are shown by their SMILES. Counter-ions that a name gives are not always drawn.

The target in test [1] is T1, S1P1 (PathHunter CHO-K1 EDG1 β-Arrestin cell line) (Homo sapiens, UniProt P21453).
T1 construct: host or cells: PathHunter CHO-K1 EDG1 β-Arrestin cell line
In words: S1P-1 β-Arrestin recruitment assay. The following applies: CHO-K1 EDG1 β-Arrestin cells, chemi-luminescence. It counts as cell-based. In short, it runs like this:
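CHO-K1 cells expressing S1P1 and β-arrestin 2 fused to complementing β-galactosidase fragments, at 1×10^4 cells/well in pH 7.4 buffer with 0.1% BSA. Compound exposure 90 min at 37 °C then 15 min room temperature; chemiluminescent substrate added for 60 min before luminescence read.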

Test [2] deals with T2, S1P1 receptor (S1P1 expressing RH7777 membranes) (Homo sapiens, UniProt P21453).
T2 construct: expressed in transfected cells; host or cells: RH7777 cells (membranes)
In words: S1P1 GTPγS assay. The class given is biochemical. To be noted: tested in one of the above S1P1 assays (two GTPγS formats). The procedure, abridged:
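Membranes from RH7777 cells expressing human S1P1 (1.5 μg/well) precoupled 30 min on ice to WGA SPA beads in 20 mM HEPES pH 7.4, 10 mM MgCl2, 100 mM NaCl, with 10 μM GDP and 90 μg/ml saponin. [35S]-GTPγS 0.5 nM final added with compound; SPA signal read immediately.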

T2 sequence (P21453 whole entry): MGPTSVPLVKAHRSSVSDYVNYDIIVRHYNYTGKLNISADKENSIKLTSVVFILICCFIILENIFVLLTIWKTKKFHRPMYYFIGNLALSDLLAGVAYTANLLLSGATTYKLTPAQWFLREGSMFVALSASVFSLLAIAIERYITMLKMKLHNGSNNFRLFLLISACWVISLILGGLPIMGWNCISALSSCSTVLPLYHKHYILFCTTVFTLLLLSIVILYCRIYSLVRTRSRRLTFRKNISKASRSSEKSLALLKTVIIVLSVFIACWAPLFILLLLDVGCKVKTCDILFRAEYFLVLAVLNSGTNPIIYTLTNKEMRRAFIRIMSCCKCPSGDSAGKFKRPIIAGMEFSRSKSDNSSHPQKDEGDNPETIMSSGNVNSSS
T1 sequence (P21453 whole entry): as above
T1 sequence (P32121 whole entry partner): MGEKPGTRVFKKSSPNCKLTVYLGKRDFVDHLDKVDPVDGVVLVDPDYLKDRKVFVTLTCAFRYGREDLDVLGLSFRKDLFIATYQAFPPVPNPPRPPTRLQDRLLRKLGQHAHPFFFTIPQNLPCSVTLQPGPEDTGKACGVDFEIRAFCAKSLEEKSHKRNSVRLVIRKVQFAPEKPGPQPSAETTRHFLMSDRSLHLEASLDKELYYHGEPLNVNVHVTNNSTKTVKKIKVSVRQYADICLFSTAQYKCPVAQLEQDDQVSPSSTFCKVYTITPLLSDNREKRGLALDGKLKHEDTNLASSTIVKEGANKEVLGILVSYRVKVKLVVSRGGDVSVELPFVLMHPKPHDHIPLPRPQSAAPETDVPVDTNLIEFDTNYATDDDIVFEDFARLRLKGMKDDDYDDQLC

Turning to `CC(C)Oc1ccc(-c2nc(-c3ccc4c(c3)CCN(CCCC(=O)N(C)C)CC4)no2)cc1C#N` [Example 26, 4-[7-(5-{3-Cyano-4-[(1-methylethyl)oxy]phenyl}-1,2,4-oxadiazol-3-yl)-1,2,4,5-tetrahydro-3H-3-benzazepin-3-yl]-N,N-dimethylbutanamide], the EC50 in test [1] is at most 10 nM; in test [2], at most 100 nM.

Consider `Cc1c(-c2noc(-c3ccc(OC(C)C)c(C#N)c3)n2)ccc2c1CCN(CCO)C2` [Example 7, 5-{3-[2-(2-Hydroxyethyl)-5-methyl-1,2,3,4-tetrahydro-6-isoquinolinyl]-1,2,4-oxadiazol-5-yl}-2-[(1-methylethyl)oxy]benzonitrile], for which the EC50 in test [1] is at most 10 nM; in test [2], at most 100 nM.

For the compound `Cc1c(-c2noc(-c3ccc(OC(C)C)c(C#N)c3)n2)ccc2c1CCN(CC(=O)NCCO)C2` [Example 122, 2-[6-(5-{3-cyano-4-[(1-methylethyl)oxy]phenyl}-1,2,4-oxadiazol-3-yl)-5-methyl-3,4-dihydro-2(1H)-isoquinolinyl]-N-(2-hydroxyethyl)acetamide hydrochloride], the EC50 in test [1] and in test [2] was at most 10 nM in each case.

With `CCOc1ncc(-c2nc(-c3ccc4c(c3)CCN(C[C@H](O)CO)CC4)no2)cc1C#N` [Example 116, 5-(3-{34[(2S)-2,3-dihydroxypropyl]-2,3,4,5-tetrahydro-1H-3-benzazepin-7-yl}-1,2,4-oxadiazol-5-yl)-2-(ethyloxy)-3-pyridinecarbonitrile], the concentration for a half-maximal effect (EC50) is at most 100 nM in test [1] and at most 1000 nM in test [2].

As for `CC(C)Oc1ccc(-c2nc(-c3cccc4c3CCN(C(=O)[C@@H](N)CO)C4)no2)cc1C#N` [Example 89, 2-[(1-methylethyl)oxy]-5-[3-(2-L-seryl-1,2,3,4-tetrahydro-5-isoquinolinyl)-1,2,4-oxadiazol-5-yl]benzonitrile hydrochloride], the values for the EC50 in test [1] and in test [2] were at most 10 nM and 1 nM, respectively.

Take `CC(C)Oc1ccc(-c2nc(-c3ccc4c(c3)CCN(C[C@H](O)CO)CC4)no2)cc1C#N` [Example 72, 5-(3-{3-[(2S)-2,3-dihydroxypropyl]-2,3,4,5-tetrahydro-1H-3-benzazepin-7-yl}-1,2,4-oxadiazol-5-yl)-2-[(1-methylethyl)oxy]benzonitrile]: the values for the half-maximal effective concentration (EC50) in test [1] and in test [2] were at most 10 nM and at most 100 nM, respectively.

With `Cc1c(-c2noc(-c3ccc(OC(C)C)c(C#N)c3)n2)ccc2c1CCN(CC(=O)N[C@H](C)CO)C2` [Example 118, 2-[6-(5-{3-cyano-4-[(1-methylethyl)oxy]phenyl}-1,2,4-oxadiazol-3-yl)-5-methyl-3,4-dihydro-2(1H)-isoquinolinyl]-N-(1R)-2-hydroxy-1-methylethyl]acetamide hydrochloride], the concentration for a half-maximal effect (EC50) in test [1] is at most 10 nM; in test [2], at most 100 nM.

Regarding `CC(C)Oc1ccc(-c2nc(-c3ccc4c(c3)CCN(CC(=O)N3CC(O)C3)CC4)no2)cc1C#N` [Example 93, 5-(3-{3-[2-(3-hydroxy-1-azetidinyl)-2-oxoethyl]-2,3,4,5-tetrahydro-1H-3-benzazepin-7-yl}-1,2,4-oxadiazol-5-yl)-2-[(1-methylethyl)oxy]benzonitrile hydrochloride], the half-maximal effective concentration (EC50) in test [1] and in test [2] was at most 10 nM each time.

In the case of `CC(C)Oc1ccc(-c2nc(-c3cccc4c3CCN(C(=O)[C@H](N)CO)C4)no2)cc1C#N` [Example 90, 2-[(1-methylethyl)oxy]-5-[3-(2-D-seryl-1,2,3,4-tetrahydro-5-isoquinolinyl)-1,2,4-oxadiazol-5-yl]benzonitrile hydrochloride], the EC50 is at most 100 nM in test [1] and at most 10 nM in test [2].

Regarding `Cc1c(-c2noc(-c3ccc(OC(C)C)c(C#N)c3)n2)ccc2c1CCN(C(=O)CCCN)C2` [Example 41, 5-{3-[2-(4-Aminobutanoyl)-5-methyl-1,2,3,4-tetrahydro-6-isoquinolinyl]-1,2,4-oxadiazol-5-yl}-2-[(1-methylethyl)oxy]benzonitrile hydrochloride], the EC50 is at most 10 nM in test [1] and at most 100 nM in test [2].
